{"source": "patent US20230146795A1", "about": "“ENHANCEMENT OF ANTI-TUMOR ACTIVITY OF SHP2 INHIBITOR PYRIMIDINONE IN COMBINATION WITH NOVEL CANCER MEDICINES IN CANCERS” (TAIHO PHARMACEUTICAL CO., LTD., priority 2020, published 2023)", "type_in_all_cases": "cell-based", "key": {"MKN45": {"test_system": "MKN45", "test": "Anti-proliferation assay (CellTiter-Glo 2.0), combination index, MKN45", "protocol": "(§1) Cell lines were obtained from ATCC or Health Science Research Resources Bank.\n(§2) Each cell lines were collected by ordinary method, then suspended in indicated medium containing 10% fetal bovine serum in table 3. The number of cells seeded per well was set to 500 cells/20 μL. […] The concentration of each anti-cancer reagents set to 8 concentrations including 0 nM. After adding the medicine to the cells, the cells were further incubated at 37° C. for 3 days under 5% CO2. Cell survival rates were calculated by adding 20 μL of CellTiter-Glo(registered trademark) 2. 0 (Promega) solution to each well, incubating the cells at room temperature for 10 minutes, and then measuring the chemiluminescence intensity of each well using a plate reader (ARVO).\n(§3) A combination index (CI) value at each combined concentration of the medicines was determined."}, "NCI-H358": {"test_system": "NCI-H358", "test": "Anti-proliferation assay (CellTiter-Glo 2.0), combination index, NCI-H358", "protocol": "as §1, §2, §3"}, "RT4": {"test_system": "RT4", "test": "Anti-proliferation assay (CellTiter-Glo 2.0), combination index, RT4", "protocol": "as §1, §2, §3"}, "[1]": {"conditions": "Compound 1 12.3 nmol/L + Gemcitabine 1.23 nmol/L, molar ratio 1:0.1"}, "[2]": {"conditions": "Compound 1 37.0 nmol/L + Gemcitabine 3.70 nmol/L, molar ratio 1:0.1"}, "[3]": {"conditions": "Compound 1 123 + combination drug 3330 nmol/L (1:27)"}, "[4]": {"conditions": "Compound 1 370 + combination drug 10000 nmol/L (1:27)"}, "[5]": {"conditions": "Compound 1 123 + combination drug 556 nmol/L (1:4.5)"}, "[6]": {"conditions": "Compound 1 370 + combination drug 1670 nmol/L (1:4.5)"}, "[7]": {"conditions": "Compound 1 1110 + combination drug 5000 nmol/L (1:4.5)"}, "[8]": {"conditions": "Compound 1 13.7 + combination drug 111 nmol/L (1:8.1)"}, "[9]": {"conditions": "Compound 1 41.2 + combination drug 333 nmol/L (1:8.1)"}, "[10]": {"conditions": "Compound 1 123 + combination drug 1000 nmol/L (1:8.1)"}, "[11]": {"conditions": "Compound 1:combination drug molar ratio 1:8.1"}, "[12]": {"conditions": "Compound 1 4.57 + combination drug 37.0 nmol/L (1:8.1)"}, "[13]": {"conditions": "Compound 1 13.7 + combination drug 123 nmol/L (1:9)"}, "[14]": {"conditions": "Compound 1 41.2 + combination drug 370 nmol/L (1:9)"}, "[15]": {"conditions": "Compound 1 123 + combination drug 1110 nmol/L (1:9)"}, "[16]": {"conditions": "Compound 1 370 + combination drug 3330 nmol/L (1:9)"}, "[17]": {"conditions": "Compound 1 1110 + combination drug 10000 nmol/L (1:9)"}, "[18]": {"conditions": "Compound 1 37.0 + combination drug 4.12 nmol/L (1:0.1)"}, "[19]": {"conditions": "Compound 1 111 + combination drug 12.3 nmol/L (1:0.1)"}, "[20]": {"conditions": "Compound 1 333 + combination drug 37.0 nmol/L (1:0.1)"}, "[21]": {"conditions": "Compound 1 1110 nmol/L + Vorinostat 3330 nmol/L, molar ratio 1:3"}, "[22]": {"conditions": "Compound 1 3330 nmol/L + Vorinostat 10000 nmol/L, molar ratio 1:3"}, "[23]": {"conditions": "Compound 1 1.52 nmol/L + Vorinostat 41.2 nmol/L, molar ratio 1:27"}, "[24]": {"conditions": "Compound 1 4.57 nmol/L + Vorinostat 123 nmol/L, molar ratio 1:27"}, "[25]": {"conditions": "Compound 1 13.7 nmol/L + Vorinostat 370 nmol/L, molar ratio 1:27"}, "[26]": {"conditions": "Compound 1 41.2 nmol/L + Vorinostat 1110 nmol/L, molar ratio 1:27"}, "[27]": {"conditions": "Compound 1 123 nmol/L + Vorinostat 3330 nmol/L, molar ratio 1:27"}, "[28]": {"conditions": "Compound 1 370 nmol/L + Vorinostat 10000 nmol/L, molar ratio 1:27"}}, "note": "Where “and” joins values, the source holds several entries; their conditions need not be identical. Equal entries are not always repeated. Where two headings read alike, the source gives them in different places."}
{"compound": "Nc1ccn([C@@H]2O[C@H](CO)[C@@H](O)C2(F)F)c(=O)n1", "note": "[Gemcitabine]", "values": [{"measurement": "CI", "setting": "MKN45; [1]", "value": 0.698}, {"measurement": "Fa", "setting": "MKN45; [1]", "value": 0.2152}, {"measurement": "CI", "setting": "MKN45; [2]", "value": 0.878}, {"measurement": "Fa", "setting": "MKN45; [2]", "value": 0.4083}, {"measurement": "Description", "setting": "MKN45; combination effect, Compound 1 + Gemcitabine, molar ratio 1:0.1", "value": "Synergy (0.3-0.7)"}]}
{"compound": "CS(=O)(=O)CCNCc1ccc(-c2ccc3ncnc(Nc4ccc(OCc5cccc(F)c5)c(Cl)c4)c3c2)o1", "note": "[Lapatinib]", "values": [{"measurement": "CI", "setting": "MKN45; [3]", "value": 0.965}, {"measurement": "Fa", "setting": "MKN45; [3]", "value": 0.6048}, {"measurement": "CI", "setting": "MKN45; [4]", "value": 0.497}, {"measurement": "Fa", "setting": "MKN45; [4]", "value": 0.9171}, {"measurement": "Description (combinatory effect by CI)", "setting": "MKN45; Compound 1:combination drug molar ratio 1:27", "value": "Synergy (0.3-0.7)"}]}
{"compound": "CCOc1cc2ncc(C#N)c(Nc3ccc(OCc4ccccn4)c(Cl)c3)c2cc1NC(=O)/C=C/CN(C)C", "note": "[Neratinib]", "values": [{"measurement": "CI", "setting": "MKN45; [5]", "value": 0.658}, {"measurement": "Fa", "setting": "MKN45; [5]", "value": 0.5592}, {"measurement": "CI", "setting": "MKN45; [6]", "value": 0.336}, {"measurement": "Fa", "setting": "MKN45; [6]", "value": 0.8104}, {"measurement": "CI", "setting": "MKN45; [7]", "value": 0.237}, {"measurement": "Fa", "setting": "MKN45; [7]", "value": 0.9240}]}
{"compound": "C=CC(=O)Nc1cc(Nc2nccc(-c3cn(C)c4ccccc34)n2)c(OC)cc1N(C)CCN(C)C", "note": "[Osimertinib]", "values": [{"measurement": "CI", "setting": "NCI-H358; [8]", "value": 0.333}, {"measurement": "Fa", "setting": "NCI-H358; [8]", "value": 0.2157}, {"measurement": "CI", "setting": "NCI-H358; [9]", "value": 0.436}, {"measurement": "Fa", "setting": "NCI-H358; [9]", "value": 0.4242}, {"measurement": "CI", "setting": "NCI-H358; [10]", "value": 0.844}, {"measurement": "Fa", "setting": "NCI-H358; [10]", "value": 0.5579}, {"measurement": "Description (combinatory effect by CI)", "setting": "NCI-H358; [11]", "value": "Synergy (0.3-0.7)"}, {"measurement": "CI", "setting": "RT4; [12]", "value": 0.844}, {"measurement": "Fa", "setting": "RT4; [12]", "value": 0.2395}, {"measurement": "CI", "setting": "RT4; [8]", "value": 0.453}, {"measurement": "Fa", "setting": "RT4; [8]", "value": 0.4891}, {"measurement": "CI", "setting": "RT4; [9]", "value": 0.326}, {"measurement": "Fa", "setting": "RT4; [9]", "value": 0.7067}, {"measurement": "CI", "setting": "RT4; [10]", "value": 0.550}, {"measurement": "Fa", "setting": "RT4; [10]", "value": 0.7777}, {"measurement": "Description (combinatory effect by CI)", "setting": "RT4; [11]", "value": "Synergy (0.3-0.7)"}]}
{"compound": "Cc1ccc(C(=O)Nc2ccc(CN3CCN(C)CC3)c(C(F)(F)F)c2)cc1C#Cc1cnc2cccnn12", "note": "[Ponatinib]", "values": [{"measurement": "CI", "setting": "NCI-H358", "value": "0.794 and 0.463 and 0.639"}]}
{"compound": "CNC(=O)c1cc(Oc2ccc(NC(=O)Nc3ccc(Cl)c(C(F)(F)F)c3)c(F)c2)ccn1", "note": "[Regorafenib]", "values": [{"measurement": "CI", "setting": "RT4; [13]", "value": 0.650}, {"measurement": "Fa", "setting": "RT4; [13]", "value": 0.1849}, {"measurement": "CI", "setting": "RT4; [14]", "value": 0.582}, {"measurement": "Fa", "setting": "RT4; [14]", "value": 0.3071}, {"measurement": "CI", "setting": "RT4; [15]", "value": 0.359}, {"measurement": "Fa", "setting": "RT4; [15]", "value": 0.5417}, {"measurement": "CI", "setting": "RT4; [16]", "value": 0.696}, {"measurement": "Fa", "setting": "RT4; [16]", "value": 0.6157}, {"measurement": "CI", "setting": "RT4; [17]", "value": 0.979}, {"measurement": "Fa", "setting": "RT4; [17]", "value": 0.7401}, {"measurement": "Description (combinatory effect by CI)", "setting": "RT4; Compound 1:combination drug molar ratio 1:9", "value": "Synergy (0.3-0.7)"}]}
{"compound": "CC(=O)Nc1cccc(-n2c(=O)n(C3CC3)c(=O)c3c(Nc4ccc(I)cc4F)n(C)c(=O)c(C)c32)c1", "note": "[Trametinib]", "values": [{"measurement": "CI", "setting": "MKN45; [18]", "value": 0.358}, {"measurement": "Fa", "setting": "MKN45; [18]", "value": 0.4047}, {"measurement": "CI", "setting": "MKN45; [19]", "value": 0.389}, {"measurement": "Fa", "setting": "MKN45; [19]", "value": 0.6614}, {"measurement": "CI", "setting": "MKN45; [20]", "value": 0.693}, {"measurement": "Fa", "setting": "MKN45; [20]", "value": 0.7703}, {"measurement": "Description (combinatory effect by CI)", "setting": "MKN45; Compound 1:combination drug molar ratio 1:0.1", "value": "Synergy (0.3-0.7)"}]}
{"compound": "O=C(CCCCCCC(=O)Nc1ccccc1)NO", "note": "[Vorinostat]", "values": [{"measurement": "CI", "setting": "NCI-H358; [21]", "value": 0.642}, {"measurement": "Fa", "setting": "NCI-H358; [21]", "value": 0.7678}, {"measurement": "CI", "setting": "NCI-H358; [22]", "value": 0.464}, {"measurement": "Fa", "setting": "NCI-H358; [22]", "value": 0.9628}, {"measurement": "Description", "setting": "NCI-H358; combination effect, Compound 1 + Vorinostat, molar ratio 1:3", "value": "Synergy (0.3-0.7)"}, {"measurement": "CI", "setting": "RT4; [23]", "value": 0.581}, {"measurement": "Fa", "setting": "RT4; [23]", "value": 0.0392}, {"measurement": "CI", "setting": "RT4; [24]", "value": 0.388}, {"measurement": "Fa", "setting": "RT4; [24]", "value": 0.1081}, {"measurement": "CI", "setting": "RT4; [25]", "value": 0.647}, {"measurement": "Fa", "setting": "RT4; [25]", "value": 0.1594}, {"measurement": "CI", "setting": "RT4; [26]", "value": 0.394}, {"measurement": "Fa", "setting": "RT4; [26]", "value": 0.4179}, {"measurement": "CI", "setting": "RT4; [27]", "value": 0.569}, {"measurement": "Fa", "setting": "RT4; [27]", "value": 0.5893}, {"measurement": "CI", "setting": "RT4; [28]", "value": 0.334}, {"measurement": "Fa", "setting": "RT4; [28]", "value": 0.8967}, {"measurement": "Description", "setting": "RT4; combination effect, Compound 1 + Vorinostat, molar ratio 1:27", "value": "Synergy (0.3-0.7)"}]}
